Ki data for two compounds are collected here from BindingDB's records for doi:10.1007/s00044-005-0131-1 (Universite De Lille, 2005).

This assay has as its target Sigma non-opioid intracellular receptor 1 (Cavia porcellus, UniProt Q60492). Nature of the assay: Binding Assay. The source says:
Binding assay using sigma receptors.

The structures appear in SMILES notation. Where “and” joins values, the source holds several entries; their conditions need not be identical. Identical values can stand only once.

Sequence of Sigma non-opioid intracellular receptor 1 (Q60492 whole entry): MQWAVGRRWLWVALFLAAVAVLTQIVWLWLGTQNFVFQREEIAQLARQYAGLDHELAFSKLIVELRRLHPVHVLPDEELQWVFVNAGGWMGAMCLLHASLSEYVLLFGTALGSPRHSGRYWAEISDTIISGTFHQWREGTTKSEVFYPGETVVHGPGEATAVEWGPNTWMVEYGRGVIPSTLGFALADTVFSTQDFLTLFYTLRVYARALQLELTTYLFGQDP

As usually defined, the Ki is the equilibrium dissociation constant of an inhibitor or competing ligand from its target. As to `CCCc1ccc2c(c1)sc(=O)n2CCN1C[C@]2(C)CCC[C@]2(C)C1` [3-{2-[(3aR,6aS)-3a,6a-dimethyl-octahydrocyclopenta[c]pyrrol-2-yl]ethyl}-6-propyl-2,3-dihydro-1,3-benzothiazol-2-one, 13], the Ki was more than 1 µM.

Take `C=C(CC)c1ccc2c(c1)sc(=O)n2CCCCN1CCCCC1` [6-(but-1-en-2-yl)-3-[4-(piperidin-1-yl)butyl]-2,3-dihydro-1,3-benzothiazol-2-one, 12]: the Ki is 0.0029 µM and 0.013 µM.
